{
  "source": "ChEMBL document CHEMBL3414511",
  "about": "“Synthesis of a novel class of substituted benzothiophene or benzofuran derivatives as BMP-2 up-regulators and evaluation of the BMP-2-up-regulating effects in vitro and the effects on glucocorticoid-induced osteoporosis in rats” (Eur J Med Chem, 2015)",
  "key": {"Rattus norvegicus [1]": {"tested_on": "Rattus norvegicus", "test": "Antiosteoporotic activity in glucocorticoid-induced Wistar rat osteoporosis model assessed as increase in trabecula number at 0.05 ug/kg/day, po administered six times a week for 3 months by toluidine blue staining-based light microscopic analysis relative to dexamethasone", "assay_type": "functional, organism-based"}, "Rattus norvegicus [2]": {"tested_on": "Rattus norvegicus", "test": "Antiosteoporotic activity in glucocorticoid-induced Wistar rat osteoporosis model assessed as increase in trabecula thickness at 0.05 ug/kg/day, po administered six times a week for 3 months by toluidine blue staining-based light microscopic analysis relative to dexamethasone", "assay_type": "functional, organism-based"}, "Rattus norvegicus [3]": {"tested_on": "Rattus norvegicus", "test": "Antiosteoporotic activity in glucocorticoid-induced Wistar rat osteoporosis model assessed as increase in trabecula area at 0.05 ug/kg/day, po administered six times a week for 3 months by toluidine blue staining-based light microscopic analysis relative to dexamethasone", "assay_type": "functional, organism-based"}, "Rattus norvegicus [4]": {"tested_on": "Rattus norvegicus", "test": "Antiosteoporotic activity in glucocorticoid-induced Wistar rat osteoporosis model assessed as increase in trabecula connectivity at 0.05 ug/kg/day, po administered six times a week for 3 months by toluidine blue staining-based light microscopic analysis relative to dexamethasone", "assay_type": "functional, organism-based"}, "Rattus norvegicus [5]": {"tested_on": "Rattus norvegicus", "test": "Toxicity in glucocorticoid-induced Wistar rat osteoporosis model assessed as white blood cells at 0.05 ug/kg/day, po administered six times a week for 3 months (reference value: 6.28 +/- 2.78 x 10^9/L)", "assay_type": "organism-based", "conditions": "in vivo, 5e-05 mg/kg"}, "Rattus norvegicus [6]": {"tested_on": "Rattus norvegicus", "test": "Toxicity in glucocorticoid-induced Wistar rat osteoporosis model assessed as lymph level at 0.05 ug/kg/day, po administered six times a week for 3 months (reference value: 50.35 +/- 12.96%)", "assay_type": "organism-based", "conditions": "in vivo, 5e-05 mg/kg"}, "Rattus norvegicus [7]": {"tested_on": "Rattus norvegicus", "test": "Toxicity in glucocorticoid-induced Wistar rat osteoporosis model assessed as neutrophilic granulocytes level at 0.05 ug/kg/day, po administered six times a week for 3 months (reference value: 31.95 +/- 8.33%)", "assay_type": "organism-based", "conditions": "in vivo, 5e-05 mg/kg"}, "Rattus norvegicus [8]": {"tested_on": "Rattus norvegicus", "test": "Toxicity in glucocorticoid-induced Wistar rat osteoporosis model assessed as aspartate transaminase level at 0.05 ug/kg/day, po administered six times a week for 3 months (reference value: 177.55 +/- 116.98 U/L)", "assay_type": "organism-based", "conditions": "in vivo, 5e-05 mg/kg"}, "Rattus norvegicus [9]": {"tested_on": "Rattus norvegicus", "test": "Toxicity in glucocorticoid-induced Wistar rat osteoporosis model assessed as alanine transaminase level at 0.05 ug/kg/day, po administered six times a week for 3 months (reference value: 43.73 +/- 36.21 U/L)", "assay_type": "organism-based", "conditions": "in vivo, 5e-05 mg/kg"}, "Rattus norvegicus [10]": {"tested_on": "Rattus norvegicus", "test": "Toxicity in glucocorticoid-induced Wistar rat osteoporosis model assessed as triglycerides level at 0.05 ug/kg/day, po administered six times a week for 3 months (reference value: 1.13 +/- 0.69 mmol/L)", "assay_type": "organism-based", "conditions": "in vivo, 5e-05 mg/kg"}, "Rattus norvegicus [11]": {"tested_on": "Rattus norvegicus", "test": "Antiosteoporotic activity in glucocorticoid-induced Wistar rat osteoporosis model assessed as trabecular bone volume at 0.05 ug/kg/day, po administered six times a week for 3 months by fluorescence assay (reference value: 33.09 +/- 5.15%)", "assay_type": "functional, Trabecula"}, "Rattus norvegicus [12]": {"tested_on": "Rattus norvegicus", "test": "Antiosteoporotic activity in glucocorticoid-induced Wistar rat osteoporosis model assessed as trabecula formation surface at 0.05 ug/kg/day, po administered six times a week for 3 months by fluorescence assay (reference value: 7.82 +/- 2.46%)", "assay_type": "functional"}, "Rattus norvegicus [13]": {"tested_on": "Rattus norvegicus", "test": "Antiosteoporotic activity in glucocorticoid-induced Wistar rat osteoporosis model assessed as trabecula resorption surface at 0.05 ug/kg/day, po administered six times a week for 3 months by fluorescence assay (reference value: 7.22 +/- 2.04%)", "assay_type": "functional"}, "Rattus norvegicus [14]": {"tested_on": "Rattus norvegicus", "test": "Antiosteoporotic activity in glucocorticoid-induced Wistar rat osteoporosis model assessed as mineral apposition rate at 0.05 ug/kg/day, po administered six times a week for 3 months by fluorescence assay (reference value: 1.06 +/- 0.27 micrometer/day)", "assay_type": "functional"}, "Rattus norvegicus [15]": {"tested_on": "Rattus norvegicus", "test": "Toxicity in glucocorticoid-induced Wistar rat osteoporosis model assessed as white blood cells at 5 mg/kg/day, po administered six times a week for 3 months (reference value: 6.28 +/- 2.78 x 10^9/L)", "assay_type": "organism-based", "set-up": "route oral", "conditions": "in vivo"}, "Rattus norvegicus [16]": {"tested_on": "Rattus norvegicus", "test": "Toxicity in glucocorticoid-induced Wistar rat osteoporosis model assessed as lymph level at 5 mg/kg/day, po administered six times a week for 3 months (reference value: 50.35 +/- 12.96%)", "assay_type": "organism-based", "set-up": "route oral", "conditions": "in vivo"}, "Rattus norvegicus [17]": {"tested_on": "Rattus norvegicus", "test": "Toxicity in glucocorticoid-induced Wistar rat osteoporosis model assessed as neutrophilic granulocytes level at 5 mg/kg/day, po administered six times a week for 3 months (reference value: 31.95 +/- 8.33%)", "assay_type": "organism-based", "set-up": "route oral", "conditions": "in vivo"}, "Rattus norvegicus [18]": {"tested_on": "Rattus norvegicus", "test": "Toxicity in glucocorticoid-induced Wistar rat osteoporosis model assessed as aspartate transaminase level at 5 mg/kg/day, po administered six times a week for 3 months (reference value: 177.55 +/- 116.98 U/L)", "assay_type": "organism-based", "set-up": "route oral", "conditions": "in vivo"}, "Rattus norvegicus [19]": {"tested_on": "Rattus norvegicus", "test": "Toxicity in glucocorticoid-induced Wistar rat osteoporosis model assessed as alanine transaminase level at 5 mg/kg/day, po administered six times a week for 3 months (reference value: 43.73 +/- 36.21 U/L)", "assay_type": "organism-based", "set-up": "route oral", "conditions": "in vivo"}, "Rattus norvegicus [20]": {"tested_on": "Rattus norvegicus", "test": "Toxicity in glucocorticoid-induced Wistar rat osteoporosis model assessed as triglycerides level at 5 mg/kg/day, po administered six times a week for 3 months (reference value: 1.13 +/- 0.69 mmol/L)", "assay_type": "organism-based", "set-up": "route oral", "conditions": "in vivo"}, "Rattus norvegicus [21]": {"tested_on": "Rattus norvegicus", "test": "Antiosteoporotic activity in glucocorticoid-induced Wistar rat osteoporosis model assessed as trabecular bone volume at 5 mg/kg/day, po administered six times a week for 3 months by fluorescence assay (reference value: 33.09 +/- 5.15%)", "assay_type": "functional, Trabecula"}, "Rattus norvegicus [22]": {"tested_on": "Rattus norvegicus", "test": "Antiosteoporotic activity in glucocorticoid-induced Wistar rat osteoporosis model assessed as trabecula formation surface at 5 mg/kg/day, po administered six times a week for 3 months by fluorescence assay (reference value: 7.82 +/- 2.46%)", "assay_type": "functional"}, "Rattus norvegicus [23]": {"tested_on": "Rattus norvegicus", "test": "Antiosteoporotic activity in glucocorticoid-induced Wistar rat osteoporosis model assessed as trabecula resorption surface at 5 mg/kg/day, po administered six times a week for 3 months by fluorescence assay (reference value: 7.22 +/- 2.04%)", "assay_type": "functional"}, "Rattus norvegicus [24]": {"tested_on": "Rattus norvegicus", "test": "Antiosteoporotic activity in glucocorticoid-induced Wistar rat osteoporosis model assessed as mineral apposition rate at 5 mg/kg/day, po administered six times a week for 3 months by fluorescence assay (reference value: 1.06 +/- 0.27 micrometer/day)", "assay_type": "functional"}, "Rattus norvegicus [25]": {"tested_on": "Rattus norvegicus", "test": "Antiosteoporotic activity in glucocorticoid-induced Wistar rat osteoporosis model assessed as increase in trabecula number at 5 mg/kg/day, po administered six times a week for 3 months by toluidine blue staining-based light microscopic analysis relative to dexamethasone", "assay_type": "functional, organism-based"}, "Rattus norvegicus [26]": {"tested_on": "Rattus norvegicus", "test": "Antiosteoporotic activity in glucocorticoid-induced Wistar rat osteoporosis model assessed as increase in trabecula thickness at 5 mg/kg/day, po administered six times a week for 3 months by toluidine blue staining-based light microscopic analysis relative to dexamethasone", "assay_type": "functional, organism-based"}, "Rattus norvegicus [27]": {"tested_on": "Rattus norvegicus", "test": "Antiosteoporotic activity in glucocorticoid-induced Wistar rat osteoporosis model assessed as increase in trabecula area at 5 mg/kg/day, po administered six times a week for 3 months by toluidine blue staining-based light microscopic analysis relative to dexamethasone", "assay_type": "functional, organism-based"}, "Rattus norvegicus [28]": {"tested_on": "Rattus norvegicus", "test": "Antiosteoporotic activity in glucocorticoid-induced Wistar rat osteoporosis model assessed as increase in trabecula connectivity at 5 mg/kg/day, po administered six times a week for 3 months by toluidine blue staining-based light microscopic analysis relative to dexamethasone", "assay_type": "functional, organism-based"}},
  "note": "Active and inactive are the calls of the source. The calls are words filed in the database; no cut-off is given here.",
  "data": [
    {"smiles": "C=C1/C(=C\\C=C2/CCC[C@]3(C)[C@@H]([C@H](C)CCCC(C)C)CC[C@@H]23)C[C@@H](O)C[C@@H]1O", "note": "[ALFACALCIDOL]", "values": [
      {"measurement": "Activity", "setting": "Rattus norvegicus [1]", "result": "Active"},
      {"measurement": "Activity", "setting": "Rattus norvegicus [2]", "result": "Active"},
      {"measurement": "Activity", "setting": "Rattus norvegicus [3]", "result": "Active"},
      {"measurement": "Activity", "setting": "Rattus norvegicus [4]", "result": "Active"},
      {"measurement": "Activity", "setting": "Rattus norvegicus [5]", "result": 3.42, "unit": "×10⁹ /L"},
      {"measurement": "Activity", "setting": "Rattus norvegicus [6]", "result": 34.83, "unit": "%"},
      {"measurement": "Activity", "setting": "Rattus norvegicus [7]", "result": 48.13, "unit": "%"},
      {"measurement": "Activity", "setting": "Rattus norvegicus [8]", "result": 109.73, "unit": "U/L"},
      {"measurement": "Activity", "setting": "Rattus norvegicus [9]", "result": 30.64, "unit": "U/L"},
      {"measurement": "Activity", "setting": "Rattus norvegicus [10]", "result": 0.51, "unit": "mmol/L"},
      {"measurement": "Activity", "setting": "Rattus norvegicus [11]", "result": 28.54, "unit": "%"},
      {"measurement": "Activity", "setting": "Rattus norvegicus [12]", "result": 6.72, "unit": "%"},
      {"measurement": "Activity", "setting": "Rattus norvegicus [13]", "result": 8.15, "unit": "%"},
      {"measurement": "Activity", "setting": "Rattus norvegicus [14]", "result": 1.05, "unit": "micrometer/day"}
    ]},
    {"smiles": "O=C(c1ccc(OCCN2CCCCC2)cc1)c1c(-c2ccc(O)cc2)sc2cc(O)ccc12", "note": "[RALOXIFENE]", "values": [
      {"measurement": "Activity", "setting": "Rattus norvegicus [15]", "result": 2.94, "unit": "×10⁹ /L"},
      {"measurement": "Activity", "setting": "Rattus norvegicus [16]", "result": 39.05, "unit": "%"},
      {"measurement": "Activity", "setting": "Rattus norvegicus [17]", "result": 40.58, "unit": "%"},
      {"measurement": "Activity", "setting": "Rattus norvegicus [18]", "result": 115.27, "unit": "U/L"},
      {"measurement": "Activity", "setting": "Rattus norvegicus [19]", "result": 35.09, "unit": "U/L"},
      {"measurement": "Activity", "setting": "Rattus norvegicus [20]", "result": 0.76, "unit": "mmol/L"},
      {"measurement": "Activity", "setting": "Rattus norvegicus [21]", "result": 34.35, "unit": "%"},
      {"measurement": "Activity", "setting": "Rattus norvegicus [22]", "result": 7.04, "unit": "%"},
      {"measurement": "Activity", "setting": "Rattus norvegicus [23]", "result": 7.82, "unit": "%"},
      {"measurement": "Activity", "setting": "Rattus norvegicus [24]", "result": 1.16, "unit": "micrometer/day"},
      {"measurement": "Activity", "setting": "Rattus norvegicus [25]", "result": "Active"},
      {"measurement": "Activity", "setting": "Rattus norvegicus [26]", "result": "Active"},
      {"measurement": "Activity", "setting": "Rattus norvegicus [27]", "result": "Active"},
      {"measurement": "Activity", "setting": "Rattus norvegicus [28]", "result": "Active"}
    ]}
  ]
}
